Results from publication PMC12514245, “Impaired migration and lung invasion of human melanoma by a novel small molecule targeting the transmembrane domain of death receptor p75^NTR” (EMBO Molecular Medicine, 2025).
Several values for one entry are separate records, joined by “and”; a condition that tells them apart may be missing. Equal values may be shown once. Entries after “also recorded” stand apart in the source; their conditions may differ. Read-outs that look alike come from different tables or passages of the source.

Legend:
[1] = Cell viability (Presto Blue), A875 NT; assay type: cell-based, human; conditions: human, A875 NT cells, 2 days; for viability at 2 days, 1 uM: Div17E5 1 uM; for viability at 2 days, 1.5 uM: Div17E5 1.5 uM
Description: (§1) To measure the cytotoxic effect of Div17E5, A875 NT or shp75 cells were seeded at 2000 cells per well (in 100 μL DMEM) in a 96-well plate and incubated for 12 h. Next, Div17E5 at various concentrations was added and incubated at 37 °C in 5% CO2 for 2 days. Following treatment, 10 μL Presto Blue® (resazurin, ThermoFIsher) was added to each well of the 96-well plate and incubated for 2 h at 37 °C in 5% CO2. Cellular fluorescence in each well was measured at 535 nm excitation and 615 nm emission using a microtiter plate reader. Data was converted into the relative cell viability (%) from the fluorescence of cells in each treatment relative to that of the DMSO control group (set as 100%).

A875 NT cells = assay: Cell viability (Presto Blue), A875 NT; assay type: cell-based, human
Description: as §1

[2] = molecular target: TMD of TrkB receptor tyrosine kinase (Homo sapiens, UniProt Q16620); assay: 2D NMR chemical shift perturbation, TrkB TMD in bicelles; assay type: binding; conditions: 4 molar excess compound
A875 shp75 cells = assay: Filopodia per cell (phalloidin staining), A875 shp75; assay type: cell-based, human; conditions: for filopodia per cell (mean of 3 experiments) / filopodia per cell (mean of one experiment): A875 shp75; for filopodia per cell (mean of one experiment): EXP1-EXP3
Description: For assessment of actin filaments, A875 cells were plated on glass coverslips in 24-well plate at a confluency of 3 × 10^4 cells/well. One day after plating, the cells were treated with 1 μM or 5 μM Np75-4A22 and NGF (100 ng/ml) or PBS for 24 h. Cells were fixed in 4% paraformaldehyde, permeabilized in 0.1% Triton-X-100, stained with Phalloidin-iFluor 488 (Abcam) at 1:2000 dilution and DAPI for 1 h. Coverslips were mounted and visualized in a laser confocal microscope.

human 70W cells = assay: Lung invasion after intravenous injection of 70W cells; conditions: 70W cells lose p75ntr expression in vivo
Description: A875 NT cells that both wound areas decreased from 1 to ~0.75 in 24 hours. But in […]
Do the in vitro assays recapitulate melanoma invasiveness? If not, is it possible the ideal compounds were missed from the screening in melanoma cells (Figure 6)? […] This assay simply scores the relative orientation/conformation of the interacting receptor TMDs in isolation form the rest of the receptor. The wound healing assay is a rather simplistic assay of cell motility. The in vitro assay that better recapitulates what may happen in vivo is the Boyden chamber migration/invasion assay.
2. In Figure 7A, co-IP experiment requires input and IgG control to show positivity and specificity. In Figure 7B, quantification using the ratio of Triton-insoluble fascin to total fascin will be much more solid than only showing the western blot.
The input control was added in 7A and quantification in 7B (also in 7A).
"NGF treatment strongly stimulated the association of fascin with p75NTR".
The labels in the Western blot shown in this panel were incorrect. They have now been […]
4. Validation of results in another human cell line
During the past year, multiple tests were done by intravenous injection of human 70W cells, […]
followed by monitoring cells in the lungs in the presence and absence of drug treatment. […]
in vivo environment. […]

WM115 cells = assay: Boyden chamber chemotaxis assay, WM115; assay type: cell-based, human; conditions: for values normalized to vehicle, mean (Figure 6E): mean of EXP1-3; for values normalized to vehicle (Figure 6E): single experiments EXP1-3
Description: For Boyden chamber assay, Corning® BioCoat™ Matrigel® Invasion Chambers 8.0 µm PET Membrane were used (cat. no. 354480). A875 NT or WM115 cells were serum-starved for 16 h and then seeded at 60,000 cells per well in serum-free media under different conditions, including DMSO (vehicle) or small molecules Div17E5 or Np75-4A22 at different concentrations to the top chamber of the Matrigel-coated trans-well chamber. The pan-caspase inhibitor Q_VD_poH (at 5 µM) was also introduced in the top chamber in some experiments. Two different chemoattractants, NGF (at 50 ng/ml or 100 ng/ml as indicated) or 10% FBS were added to the bottom chamber. Assays were carried out for 8 h after which filters were fixed in 4% PFA and stained with DAPI. Cells that had remained on the top of the filter were gently scrapped away with a cotton tip. The filter lower side was imaged on an inverted fluorescence microscope and counted using ImageJ software (NIH).

[3] = N=3, read-out: Cell Viability, Mean
[4] = read-out: Cell Viability, n1-n3
[5] = A875 shp75, EXP3, 1 uM 4A22 + 100 ng/ml NGF
[6] = A875 shp75 cells, EXP1, 1 uM 4A22, wells 1-4
[7] = A875 shp75 cells, EXP1, 5 uM 4A22 + 100 ng/ml NGF, wells 1-4
[8] = A875 shp75 cells, EXP2, 1 uM 4A22 + 100 ng/ml NGF, wells 1-4
[9] = A875 shp75 cells, EXP2, 5 uM 4A22 + 100 ng/ml NGF, wells 1-4
[10] = A875 shp75 cells, EXP2, 5 uM 4A22, wells 1-4

TMD of TrkB receptor tyrosine kinase, sequence (Q16620 419-466): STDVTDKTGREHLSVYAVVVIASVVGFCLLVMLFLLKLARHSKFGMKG

SMILES: Oc1ccc(-c2cncc(Nc3ccc(Br)c(Cl)c3)n2)cc1 [Div17E5]
- viability at 2 days, 0.5 uM ([1]; Div17E5 0.5 uM, N=3): 79%
- viability at 2 days, 1 uM [1, 3]: 75%
- viability at 2 days, 1 uM [1, 4]: 77%
- viability at 2 days, 1.5 uM [1, 3]: 65%
- viability at 2 days, 1.5 uM [1, 4]: 71%
- Cell Viability, n1-n3 (A875 NT cells; Div17E5 0.5 uM, 2 days): 76%
- Cell Viability, n1-n3 (A875 NT cells; Div17E5 1 uM, 2 days): 69% and 80%
- Cell Viability, n1-n3 (A875 NT cells; Div17E5 1.5 uM, 2 days): 66%
- Cell Viability, n1-n3 (A875 NT cells; Div17E5 2.5 uM, 2 days): 61% and 52%
- Cell Viability, n1-n3 (A875 NT cells; Div17E5 5 uM, 2 days): 51% and 57%
- Cell Viability, n1-n3 (A875 NT cells; Div17E5 7.5 uM, 2 days): 44% and 51%
- Cell Viability, n1-n3 (A875 NT cells; Div17E5 10 uM, 2 days): 39% and 42%
- viability at 0.5 µM (A875 NT cells; Homo sapiens, A875, 48 h, Div17E5 0.5 uM, 2 days, read-out: Cell Viability, n1-n3): 85%
- viability at 2 µM (A875 NT cells; Homo sapiens, A875, 48 h, Div17E5 2 uM, 2 days, read-out: Cell Viability, n1-n3): 67%
- viability at 2.5 µM (A875 NT cells; Homo sapiens, A875, 48 h, Div17E5 2.5 uM, 2 days, N=3, read-out: Cell Viability, Mean): 59%
- viability at 2.5 µM (A875 NT cells; Homo sapiens, A875, 48 h, Div17E5 2.5 uM, 2 days, read-out: Cell Viability, n1-n3): 65%
- viability at 5 µM (A875 NT cells; Homo sapiens, A875, 48 h, Div17E5 5 uM, 2 days, N=3, read-out: Cell Viability, Mean): 55%
- viability at 5 µM (A875 NT cells; Homo sapiens, A875, 48 h, Div17E5 5 uM, 2 days, read-out: Cell Viability, n1-n3): 58%
- viability at 7.5 µM (A875 NT cells; Homo sapiens, A875, 48 h, Div17E5 7.5 uM, 2 days, N=3, read-out: Cell Viability, Mean): 50%
- viability at 7.5 µM (A875 NT cells; Homo sapiens, A875, 48 h, Div17E5 7.5 uM, 2 days, read-out: Cell Viability, n1-n3): 55%
- viability at 10 µM (A875 NT cells; Homo sapiens, A875, 48 h, Div17E5 10 uM, 2 days, read-out: Cell Viability, n1-n3): 49%
- cell viability (A875 NT cells; above 10 μM): sensitive
- cell viability (A875 NT cells; dose-dependent): decreased viability

SMILES: Cc1cccc(-c2cncc(Nc3ccc(Br)c(Cl)c3Cl)n2)c1C [Np75-4A22]
- chemical shift perturbations, TrkB TMD [2]: mostly non-specific interaction; also recorded: no or minimal chemical shift perturbations
- filopodia per cell, compound alone (A875 shp75 cells; 1 or 5 μM): no effects per se
- filopodia per cell (single image) (A875 shp75 cells; [5]): 35
- filopodia per cell (well mean) (A875 shp75 cells; [5]): 35.0833 and 29.3333 and 46.5 and 31.1667
- filopodia per cell (single image) (A875 shp75 cells; A875 shp75, EXP3, 5 uM 4A22): 35
- filopodia per cell (well mean) (A875 shp75 cells; A875 shp75, EXP3, 5 uM 4A22): 26.25 and 40.3333 and 46.1111 and 41.3333
- filopodia per cell (well mean) (A875 shp75 cells; A875 shp75, EXP3, 5 uM 4A22 + 100 ng/ml NGF): 35.1667 and 32.8333 and 43.3889 and 37.5
- filopodia per cell (mean of 3 experiments) (A875 shp75 cells; 100ng/ml NGF&1uM 4A22): 37.2384
- filopodia per cell (mean of one experiment) (A875 shp75 cells; 100ng/ml NGF&1uM 4A22): 38.132 and 38.0625 and 35.5208
- filopodia per cell (mean of 3 experiments) (A875 shp75 cells; 100ng/ml NGF&5uM 4A22): 37.6510
- filopodia per cell (mean of one experiment) (A875 shp75 cells; 100ng/ml NGF&5uM 4A22): 35.6615 and 40.0695 and 37.2222
- filopodia per cell (mean of 3 experiments) (A875 shp75 cells; 1uM 4A22): 34.8819
- filopodia per cell (mean of one experiment) (A875 shp75 cells; 1uM 4A22): 30.6458 and 39.4583 and 34.5417
- filopodia per cell (mean of 3 experiments) (A875 shp75 cells; 5uM 4A22): 36.6829
- filopodia per cell (mean of one experiment) (A875 shp75 cells; 5uM 4A22): 35.8958 and 35.6458 and 38.5069
- filopodia per cell (well mean) (A875 shp75 cells; A875 shp75 cells, EXP1, 1 uM 4A22 + 100 ng/ml NGF, wells 1-4): 34.0833 and 42.6667 and 40.1111 and 35.6667
- filopodia per cell (single image) (A875 shp75 cells; [6]): 35
- filopodia per cell (well mean) (A875 shp75 cells; [6]): 28.25 and 31.6667 and 30.4167 and 32.25
- filopodia per cell (single image) (A875 shp75 cells; [7]): 35
- filopodia per cell (well mean) (A875 shp75 cells; [7]): 38.8333 and 30.1667 and 37.3125 and 36.3333
- filopodia per cell (well mean) (A875 shp75 cells; A875 shp75 cells, EXP1, 5 uM 4A22, wells 1-4): 36.5 and 34.5 and 32.75 and 39.8333
- filopodia per cell (single image) (A875 shp75 cells; [8]): 35
- filopodia per cell (well mean) (A875 shp75 cells; [8]): 43.1667 and 38 and 39.3333 and 31.75
- filopodia per cell (well mean) (A875 shp75 cells; A875 shp75 cells, EXP2, 1 uM 4A22, wells 1-4): 35.6667 and 37.1667 and 36.6667 and 48.3333
- filopodia per cell (single image) (A875 shp75 cells; [9]): 35
- filopodia per cell (well mean) (A875 shp75 cells; [9]): 43.6667 and 38.1667 and 45.6111 and 32.8333
- filopodia per cell (single image) (A875 shp75 cells; [10]): 35
- filopodia per cell (well mean) (A875 shp75 cells; [10]): 36.5 and 31 and 38.1667 and 36.9167
- number of metastasized 70W cells in the lungs (human 70W cells): had no effect on the number of metastasized cells
- values normalized to vehicle, mean (Figure 6E) (WM115 cells; 100 ng/ml NGF & 1 uM 4A22): 1.0063
- values normalized to vehicle (Figure 6E) (WM115 cells; 100 ng/ml NGF & 1 uM 4A22): 0.9175 and 0.9379 and 1.163
- spontaneous migration of WM115 cells (WM115 cells; 1μM): without affecting the spontaneous migration
- values normalized to vehicle, mean (Figure 6E) (WM115 cells; 1 uM 4A22): 0.8431
- values normalized to vehicle (Figure 6E) (WM115 cells; 1 uM 4A22): 0.9343 and 0.8878 and 0.7073
- NGF-induced migration of WM115 cells (WM115 cells; 1 μM, NGF 100 ng/ml): blocked this activity
